Measured values as given in patent US5364777A, “Method of improving lipase activity using noble gases” (American Air Liquide, priority 1992, dated 1994).

Assays:
[1] = system: triacylglycerol lipase EC 3.1.1.3; experiment: Lipase L-1754 hydrolysis of p-nitrophenyl caprate, butyrate, caproate under gaseous atmospheres (400 nm); assay type: biochemical, Candida cylindracea; conditions: for Maximum inhibition of lipase activity, PNP-Butyrate: substrate PNP-Butyrate, 10° C.; for Maximum enhancement of lipase activity, PNP-Caproate: substrate PNP-Caproate
Method: FIGS. 4-6 show a typical and similar enzyme assay carried out on the same enzyme using PNP-butyrate showing inhibition of activity at 10° C. 25° C. and 35° C., respectively. Significant depression in rate is noted.
(§1) Lipase catalysis of lipid conversion was tested using triglycerides, paranitrophenyl (PNP) acetate, PNP-butyrate, PNP-caprate, PNP-caprylate, PNP-caproate, olive oil, standard lipids and triglycerides, and other lipids. […]
(§2) Testing Of An Adequate Procedure
(§3) To Follow Lipase L-1754/p-Nitrophenyl
caprate N-0252, p-Nitrophenyl butyrate N-9876, p-Nitrophenyl
caproate N-0502, p-Nitrophenyl caprylate N-0752
PURPOSE: Testing protocol to follow Lipase L-17,54 using p-
ENZYME: Lipase (Sigma No. L-1754)
Type VII from Candida cylindracea w/ 30% lactose
p-Nitrophenyl caprate (Sigma No. N-02521)
p-Nitrophenyl butyrate (Sigma No. N-9876)
p-Nitrophenyl caproate (Sigma No. N-0502)
Results: We will do gas runs using p-nitrophenyl caproate and
p-nitrophenyl caprate as substrates. These will be compared to
p-nitrophenyl caproate N-0502
p-nitrophenyl caprate N-0252

[2] = system: triacylglycerol lipase EC 3.1.1.3; experiment: Lipase hydrolysis of p-nitrophenyl acetate under gaseous atmospheres (spectrophotometric, 400 nm); assay type: biochemical, Rhizonus arrhizus; conditions: substrate PNP-Acetate, +25° C.
Method: FIGS. 1-3 show a typical enzyme assay carried out at 10, 25 and 35 degrees °C. for triacylglycerol lipase catalysts of paranitrophenol acetate hydrolysis.
as §1, §2, §3
Effect of Air, Ne, Ar, Kr, Xe, N2 and O2 on
Lipase L-1754 using p-nitrophenyl acetate
ENZYME: Lipase (Sigma No. L-4384)
Type XI from Rhizonus arrhizus
p-Nitrophenyl acetate (Sigma No. N-8130)
8 DIFFERENT GASEOUS ATMOSPHERES:
3 DIFFERENT TEMPERATURES:
R = 2.0 ml Soln D + 0.5 ml Soln A
fill the cuvettes with 2.0 ml of (p-nitrophenyl
Fill 8 serum vials with 5.0 ml of (lipase
Bubble 10x10cc of the appropriate gas in T1G1 ... 5
Bubble 10xl0cc of the appropriate gas in G1 ... 5
Remove G1 ... 5 serum vials from fridge. Sample soln

Maximum enhancement of lipase activity, PNP-Caproate ([1]; +35 degrees)	Maximum enhancement of lipase activity, PNP-Caprate ([1]; substrate PNP-Caprate, 35° C.)	Maximum enhancement of lipase activity, PNP-Caproate ([1]; 25° C.)	SMILES	Maximum inhibition of lipase activity, PNP-Butyrate [1]	Maximum enhancement of lipase activity, PNP-Acetate [2]
+23%			[Xe] [Xe, xenon]	26%	
			[Kr] [Kr, krypton]	-25%	+11%
	+14%	+37%	[Ar] [Ar, argon]		
